This is an account of results in patent publication US8927760B2, “Colchicine derivatives or pharmaceutically acceptable salts thereof, method for preparing said derivatives, and pharmaceutical composition comprising said derivatives” (priority 2010, dated 2015).

Each structure is given as a SMILES string. Several values for one entry are separate records, joined by “and”; a condition that tells them apart may be missing. Identical values can stand only once. Entries after “also recorded” stand apart in the source; their conditions may differ.

For one series, the system named is spleen cells of rats. The series is described as follows: Cytotoxicity test in rat spleen cells (CCK, absorbance at 450 nm). The series is classed as cell-based. Conditions: 72 hours, at concentrations of 100 ng to 10000 ng/mL. How it is done:
Cytotoxicity test was performed to determine the toxicity of immunosuppressant candidate materials by mixing the immunosuppressant candidate materials with spleen cells of rats in culture media and measuring the degree of toxicity in the cells. […] The concentrations of the drugs were 0.1, 1, 10, 100, 1000, 10000, and 100000 ng/mL. The cells were cultured in a CO2 incubator for 72 hours, and then each well was treated with 10 μl of CCK-SK (Dojindo, Japan). Subsequently, the cells were cultured again in the CO2 incubator for 4 hours, and then the absorbance (O.D. value) was measured at 450 nm using a spectrophotometer.

The test system of series [1] is streptozotocin induced diabetic Fischer 344 rats with transplanted Lewis rat islet cells. The series is described as follows: Allogeneic pancreatic islet cell transplantation - combined intraperitoneal administration. Conditions: for Average number of days for which islet cell function was maintained / Number of days for which islet cell function was maintained (individual rats): i.p. for 14 days. It is filed as in vivo. How it is done: (§1) Streptozotocin is a drug that destroys pancreatic islet cells to induce diabetes and is used to create experimental diabetic animal models. Allogeneic islets were transplanted into the livers of streptozotocin induced diabetic rat by injection into the portal vein. The functioning of transplanted islets was assessed by daily measurements of blood glucose levels. Islets were considered rejected when the blood glucose level was 200 mg/dl on two consecutive days.
(§2) 35 mg/kg of streptozotocin (50 mg/mL) dissolved in a 0.1 M citrate buffer solution (pH 4.5) was intraperitoneally injected into 8-week-old male Fischer 344 rats (F344) weighing about 200 to 220 g. Then, the blood glucose level was measured after 1 week, and the first day when the blood glucose level increased over 300 mg/dl and the increase was repeated more than twice was considered as the date of diagnosis of diabetes. The rats were used in transplantation 3 weeks after the administration of streptozotocin.
(§3) Pancreases of 8-week-old male Lewis rats were extracted on the 3 weeks after the diabetes was induced in Fischer rats, and islet cells were isolated. The isolated islet cells were cultured in a CO2 incubator at 37° C. for a day, and the cultured islet cells were transplanted into the diabetic Fischer rats.
However, considering the interaction between the two drugs, the two drugs were introduced in different syringes and injected to right and left sides of the abdominal cavity, respectively, and the measurement results are shown in the following table 4.

For series [2] the test system is unchanged. The series is described as follows: Allogeneic pancreatic islet cell transplantation - single intraperitoneal administration. The series is classed as in vivo. The procedure: as §1, §2, §3
Cyclosporin (5 mg/kg), colchicine (10 μg/kg and 40 μg/kg), and colchicine derivative compounds (compounds 1, 7, 9, 14, 15, 17, 18, 22, and 23; 50 μg/kg) were administered to the Fischer rats, to which the islet cells were transplanted, for 14 days from the date of transplantation, and the maintenance of blood glucose levels was examined until rejection occurred from the date of transplantation.

The test system of series [3] is Wistar rat (recipient) with transplanted Lewis rat heart. Briefly: Allogeneic heart transplantation (abdominal heterotopic, Lewis donor to Wistar recipient). The series is classed as in vivo. The procedure:
Hearts of 8-week-old Lewis rats (donor) weighing about 250 g were extracted and performed abdominal heterotopic heart transplantation into the abdominal cavity of 8-week-old Wistar rat (recipient) weight about 300 g by cross-clamping caudal vena cava and the abdominal aorta of recipient both proximally and distally to the anastomotic site.
The heart rate of each rat in an untreated control group and the experimental groups was measured by abdominal palpation from the date of the heart transplant, and the heart rate was classified as ++++ (strong and fast heartbeat), +++ (strong or fast heartbeat), ++ (faint and slow but distinct heartbeat), + (faint but steady heartbeat), and ±0 (intermittent heartbeat).

Setting [4] is: 50 μg/kg combined with CsA (5 mg/kg).
[5] abbreviates: single administration, 50 μg/kg i.p. for 14 days.
The mark [6] stands for this setting: 10 μg/kg intravenously for 14 days.
The mark [7] stands for this setting: single administration, 10 μg/kg i.p. for 14 days.

Consider `COc1cc2c(c(OC)c1OC)-c1ccc(OC)c(=O)cc1C(NC(=O)OCc1ccccc1)CC2` (stereo not shown) [Compound 1, (1,2,3,10-tetramethoxy-9-oxo-5,6,7,9-tetrahydro-benzo[a]heptalen-7-yl)-carbamic acid benzyl ester], for which the cytotoxicity entry in the series on spleen cells of rats was “no cytotoxicity”. Further, in series [1] (setting [4]), the “Average number of days for which islet cell function was maintained” value was found to be 27 days and the “Number of days for which islet cell function was maintained (individual rats)” value is 27, 27 day.

As to `COc1cc2c(c(OC)c1OC)-c1ccc(OC)c(=O)cc1C(NC(=O)CC1c3ccccc3-c3ccccc31)CC2` (stereo not shown) [Compound 23, 2-(9H-fluoren-9-yl)-N-(1,2,3,10-tetramethoxy-9-oxo-5,6,7,9-tetrahydro-benzo[a]heptalen-7-yl)-acetamide], the cytotoxicity entry in the series with spleen cells of rats was “no cytotoxicity”. Further, in series [1] (setting [4]), the “Average number of days for which islet cell function was maintained” value came to 26.5 days.

Turning to `COc1ccc(CCC(=O)NC2CCc3cc(OC)c(OC)c(OC)c3-c3ccc(OC)c(=O)cc32)cc1` (stereo not shown) [Compound 22, 3-(4-methoxy-phenyl)-N-(1,2,3,10-tetramethoxy-9-oxo-5,6,7,9-tetrahydro-benzo[a]heptalen-7-yl)-propionamide], the cytotoxicity result in the series on spleen cells of rats was “no cytotoxicity”. For the same compound, in series [1] (setting [4]), the “Average number of days for which islet cell function was maintained” value stood at 20.7 days.

As for `COc1cc2c(c(OC)c1OC)-c1ccc(OC)c(=O)cc1C(NC(=O)OCC1c3cc(C(C)(C)C)ccc3-c3ccc(C(C)(C)C)cc31)CC2` (stereo not shown) [Compound 17, (1,2,3,10-tetramethoxy-9-oxo-5,6,7,9-tetrahydro-benzo[a]heptalen-7-yl)-carbamic acid 2,7-di-tert-butyl-9H-fluoren-9-ylmethyl ester], the cytotoxicity result in the series with spleen cells of rats is “no cytotoxicity”. Besides, the “Average number of days for which islet cell function was maintained” value in series [1] (setting [4]) worked out at 36.5 days.

`COc1cc2c(c(OC)c1OC)-c1ccc(OC)c(=O)cc1C(NC(=O)OCc1ccc(C(C)C)cc1)CC2` (stereo not shown) [Compound 9, (1,2,3,10-tetramethoxy-9-oxo-5,6,7,9-tetrahydro-benzo[a]heptalen-7-yl)-carbamic acid 4-isopropyl benzyl ester]: the cytotoxicity result in the series with spleen cells of rats is listed as “no cytotoxicity”. The “Average number of days for which islet cell function was maintained” value in series [2] (setting [5]) is 5.7 ± 0.58 days; in series [1] (setting [4]), greater than 55.7 days. The “Number of days for which islet cell function was maintained (individual rats)” value in series [2] (setting [5]) is 5 days to days and 5 day and 6 day.

In the case of `COc1ccc(COC(=O)NC2CCc3cc(OC)c(OC)c(OC)c3-c3ccc(OC)c(=O)cc32)cc1` (stereo not shown) [Compound 7, (1,2,3,10-tetramethoxy-9-oxo-5,6,7,9-tetrahydro-benzo[a]heptalen-7-yl)-carbamic acid 4-methoxy benzyl ester], the cytotoxicity entry in the series with spleen cells of rats is listed as “no cytotoxicity”. The entries for the “Average number of days for which islet cell function was maintained” value in series [2] (setting [5]), in series [1] (setting [4]) and in series [1] (100 μg/kg combined with CsA (5 mg/kg)) were 5.7 ± 1.16 days, greater than 61.6 days and greater than 72 days, respectively. The “Number of days for which islet cell function was maintained (individual rats)” value in series [2] (setting [5]) was 5 day (2×) and 7 day.

In the case of `COc1cc2c(c(OC)c1OC)-c1ccc(OC)c(=O)cc1[C@@H](NC(C)=O)CC2` [Colchicine, colchicine], the “Average number of days for which heart rate was kept” value in series [3] (setting [6]) was greater than 70 ± 100.5 days; in series [3] (40 μg/kg intravenously for 14 days) it was greater than 73.3 ± 85.4 days. For the same compound, the “Number of days for which heart rate was kept (individual rats)” value in series [3] (setting [6]) is 12 day (2×) and > 186 day; in series [3] (10 μg/kg intravenously for 14 days, listed as colchicine), 12 day and over 186 day; in series [3] (40 μg/kg intravenously for 14 days, * = death), 13 days and 14 days and > 32 days and > 187 days; in series [3] (40 μg/kg intravenously for 14 days, * = death, listed as colchicine), 13 day and 14 day and over 187 day. For the same compound, the death of rats entry in series [2] (40 μg/kg alone, four rats, listed as colchicines) is listed as “two of the four rats were dead; also recorded: one rat was dead suddenly after 9 days”. In series [2] (40 μg/kg alone, on the second day, the two rats that died), this compound yielded a weight reduction of 15%. Moreover, the “difference from the control group in maintenance of blood glucose levels” value in series [2] (single administration) was “no significant differences from the control group”. For the same compound, the “Average number of days for which islet cell function was maintained” value in series [2] (setting [7]) amounted to 5 days; in series [2] (single administration, 40 μg/kg i.p. for 14 days) it was 6 days; in series [1] (10 μg/kg combined with CsA (5 mg/kg)), 8 days; in series [1] (10 μg/kg combined with CsA (5 mg/kg), listed as colchicine) it was 8 days. Besides, the “Number of days for which islet cell function was maintained (individual rats)” value in series [2] (setting [7]) is 5, 5 day; in series [2] (single administration, 40 μg/kg i.p. for 14 days, * = death) it was 2 day (2×) and 6 day and 9 day; in series [2] (single administration, 40 μg/kg i.p. for 14 days, * = death, listed as colchicines), 6 days. Moreover, the “increase of days of islet cell function compared to the single administration” value in series [1] (10 μg/kg combined with cyclosporin A (5 mg/kg)) is given as “about 3 days”.

Consider `COc1cc2c(c(OC)c1OC)-c1ccc(OC)c(=O)cc1C(NC(=O)OCC1c3ccccc3-c3cccc(C)c31)CC2` (stereo not shown) [Compound 15, (1,2,3,10-tetramethoxy-9-oxo-5,6,7,9-tetrahydro-benzo[a]heptalen-7-yl)-carbamic acid 1-methyl-9H-fluoren-9-ylmethyl ester], for which the cytotoxicity result in the series with spleen cells of rats is given as “no cytotoxicity”. For the same compound, in series [1] (setting [4]), the “Average number of days for which islet cell function was maintained” value was 24 days and the “Number of days for which islet cell function was maintained (individual rats)” value is recorded as 24, 24 day.

Consider `COc1cc2c(c(OC)c1OC)-c1ccc(OC)c(=O)cc1C(NC(=O)OCCC1c3ccccc3-c3ccccc31)CC2` (stereo not shown) [Compound 18, (1,2,3,10-tetramethoxy-9-oxo-5,6,7,9-tetrahydro-benzo[a]heptalen-7-yl)-carbamic acid 2-(9H-fluoren-9-yl)-ethyl ester], for which the cytotoxicity entry in the series with spleen cells of rats is “no cytotoxicity”. The “Average number of days for which islet cell function was maintained” value in series [1] (setting [4]) amounted to 28 days.
